Experiments:
[1] = target: T1, 5-hydroxytryptamine receptor 1A (Homo sapiens, UniProt P08908); test: Displacement of [3H]-[…] from human full length 5-HT1AR expressed in HEK293 cells by radioligand binding assay; format: cell-based
T1 sequence (P08908 whole entry): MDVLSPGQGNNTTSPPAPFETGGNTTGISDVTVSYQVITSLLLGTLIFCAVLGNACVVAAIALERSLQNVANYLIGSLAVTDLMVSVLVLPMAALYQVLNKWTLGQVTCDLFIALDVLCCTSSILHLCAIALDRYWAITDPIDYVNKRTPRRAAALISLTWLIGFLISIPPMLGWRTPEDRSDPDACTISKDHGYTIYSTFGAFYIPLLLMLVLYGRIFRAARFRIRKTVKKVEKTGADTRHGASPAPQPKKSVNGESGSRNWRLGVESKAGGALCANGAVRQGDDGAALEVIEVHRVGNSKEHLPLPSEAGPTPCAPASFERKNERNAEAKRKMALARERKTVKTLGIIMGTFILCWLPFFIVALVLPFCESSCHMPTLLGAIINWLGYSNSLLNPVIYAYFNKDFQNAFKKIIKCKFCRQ

[2] = target: 5-hydroxytryptamine receptor 7 (Homo sapiens, UniProt P34969); test: Displacement of [3H]-5-CT from human full length 5HT7BR expressed in HEK293 cells by radioligand binding assay; format: cell-based
5-hydroxytryptamine receptor 7, sequence (P34969 whole entry): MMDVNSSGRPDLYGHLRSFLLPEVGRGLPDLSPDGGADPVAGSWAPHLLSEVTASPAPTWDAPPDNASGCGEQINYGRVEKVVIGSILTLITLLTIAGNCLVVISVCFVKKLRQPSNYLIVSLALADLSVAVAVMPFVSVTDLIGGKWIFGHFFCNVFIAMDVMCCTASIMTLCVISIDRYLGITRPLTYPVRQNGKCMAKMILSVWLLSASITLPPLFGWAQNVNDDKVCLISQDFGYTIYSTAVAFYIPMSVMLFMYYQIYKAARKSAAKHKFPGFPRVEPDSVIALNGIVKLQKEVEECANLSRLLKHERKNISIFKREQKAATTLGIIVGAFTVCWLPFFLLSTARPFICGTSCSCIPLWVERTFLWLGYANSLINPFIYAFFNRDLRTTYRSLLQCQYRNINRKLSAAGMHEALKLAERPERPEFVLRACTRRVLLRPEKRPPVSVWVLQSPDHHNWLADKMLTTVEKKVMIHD

[3] = target: 5-hydroxytryptamine receptor 2A (Homo sapiens, UniProt P28223); test: Displacement of [3H]-ketanserin from 5-HT2AR (unknown origin) expressed in CHO-K1 cells by radioligand binding assay; format: cell-based
5-hydroxytryptamine receptor 2A, sequence (P28223 whole entry): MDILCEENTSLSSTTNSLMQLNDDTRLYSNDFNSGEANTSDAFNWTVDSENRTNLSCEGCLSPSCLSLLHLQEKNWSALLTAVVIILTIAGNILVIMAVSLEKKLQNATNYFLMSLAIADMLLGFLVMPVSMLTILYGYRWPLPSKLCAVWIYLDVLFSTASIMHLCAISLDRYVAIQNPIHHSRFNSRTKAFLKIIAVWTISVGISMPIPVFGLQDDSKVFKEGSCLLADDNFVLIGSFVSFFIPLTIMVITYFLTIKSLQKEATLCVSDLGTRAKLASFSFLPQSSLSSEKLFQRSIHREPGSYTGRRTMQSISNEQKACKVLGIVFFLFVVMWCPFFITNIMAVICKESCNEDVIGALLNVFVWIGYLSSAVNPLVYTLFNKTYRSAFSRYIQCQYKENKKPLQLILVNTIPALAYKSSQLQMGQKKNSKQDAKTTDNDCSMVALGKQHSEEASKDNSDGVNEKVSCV

[4] = target: T2, 5-hydroxytryptamine receptor 6 (Homo sapiens, UniProt P50406); test: Displacement of [3H]-LSD from human full length 5HT6R expressed in HEK293 cells by radioligand binding assay; format: cell-based
T2 sequence (P50406 whole entry): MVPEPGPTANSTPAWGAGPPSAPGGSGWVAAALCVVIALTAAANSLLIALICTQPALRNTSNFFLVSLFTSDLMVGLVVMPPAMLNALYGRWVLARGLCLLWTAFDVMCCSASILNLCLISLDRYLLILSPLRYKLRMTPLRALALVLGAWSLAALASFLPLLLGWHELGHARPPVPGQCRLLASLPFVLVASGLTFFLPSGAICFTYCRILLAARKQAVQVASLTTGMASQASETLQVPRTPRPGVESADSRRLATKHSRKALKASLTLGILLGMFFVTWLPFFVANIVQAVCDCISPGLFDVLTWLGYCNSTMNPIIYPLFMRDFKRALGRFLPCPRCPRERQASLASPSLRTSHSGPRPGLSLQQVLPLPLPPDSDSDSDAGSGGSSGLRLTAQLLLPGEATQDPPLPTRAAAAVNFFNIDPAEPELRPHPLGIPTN

D(2) dopamine receptor [5] = target: T3, D(2) dopamine receptor (Homo sapiens, UniProt P14416); test: Displacement of [3H]-raclopride from human full length D2L receptor expressed in HEK293 cells by radioligand binding assay; format: cell-based
T3 sequence (P14416 whole entry): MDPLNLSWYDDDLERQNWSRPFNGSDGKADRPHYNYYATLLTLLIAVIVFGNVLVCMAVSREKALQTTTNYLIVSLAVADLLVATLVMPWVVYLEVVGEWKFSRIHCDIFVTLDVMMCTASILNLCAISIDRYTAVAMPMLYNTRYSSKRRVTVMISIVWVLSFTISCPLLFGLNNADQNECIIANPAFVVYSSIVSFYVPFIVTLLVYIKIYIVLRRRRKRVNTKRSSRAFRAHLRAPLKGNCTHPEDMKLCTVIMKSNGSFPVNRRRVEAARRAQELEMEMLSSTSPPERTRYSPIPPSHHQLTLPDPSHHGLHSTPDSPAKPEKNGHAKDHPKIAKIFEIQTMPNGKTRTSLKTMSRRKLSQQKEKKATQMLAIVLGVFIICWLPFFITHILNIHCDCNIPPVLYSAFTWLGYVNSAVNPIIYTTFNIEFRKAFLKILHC

[6] = target: T1, 5-hydroxytryptamine receptor 1A; test: Displacement of [3H]-[…] from human 5-HT1AR in human brain tissue by radioligand binding assay; format: tissue-based
[7] = Permeability coefficient of the compound in PBS buffer at pH 7.4 incubated for 5 hrs by PAMPA-based LC-MS analysis; format: ADME; conditions: read-out: Kp
[8] = target: T2, 5-hydroxytryptamine receptor 6; test: Binding affinity to 5-HT6R (unknown origin) assessed as inhibition constant
[9] = target: T1, 5-hydroxytryptamine receptor 1A; test: Binding affinity to 5-HT1AR (unknown origin) assessed as inhibition constant
D(2) dopamine receptor [10] = target: T3, D(2) dopamine receptor; test: Binding affinity to D2L receptor (unknown origin) assessed as inhibition constant
Homo sapiens = organism: Homo sapiens; test: Selectivity ratio of Ki for human full length D2L receptor expressed in HEK293 cells to Ki for human full length 5-HT1AR expressed in HEK293 cells; format: cell-based
[11] = target: T4, 5-hydroxytryptamine receptor 1A (Homo sapiens) (UniProt P08908); test: Binding affinity to human full length 5-HT1AR expressed in HEK293 cells by Cheng-Prusoff equation analysis; format: cell-based; conditions: filed as antagonist
T4 sequence (whole entry): T1 sequence (P08908 whole entry)

[12] = Hepatotoxicity in human HepG2 cells assessed as reduction in cell viability at 50 to 100 uM incubated for 72 hrs by MTS assay; format: toxicity, cell-based; conditions: hepg2, 72 h, dose 50-100 µM
CYP3A4 = CYP3A4 (Homo sapiens, UniProt P08684); test: Inhibition of CYP3A4 (unknown origin) at 10 uM by luminescence based Glo assay; format: ADME; conditions: CYP3A4 enzyme (unknown origin)
CYP3A4, sequence (P08684 whole entry): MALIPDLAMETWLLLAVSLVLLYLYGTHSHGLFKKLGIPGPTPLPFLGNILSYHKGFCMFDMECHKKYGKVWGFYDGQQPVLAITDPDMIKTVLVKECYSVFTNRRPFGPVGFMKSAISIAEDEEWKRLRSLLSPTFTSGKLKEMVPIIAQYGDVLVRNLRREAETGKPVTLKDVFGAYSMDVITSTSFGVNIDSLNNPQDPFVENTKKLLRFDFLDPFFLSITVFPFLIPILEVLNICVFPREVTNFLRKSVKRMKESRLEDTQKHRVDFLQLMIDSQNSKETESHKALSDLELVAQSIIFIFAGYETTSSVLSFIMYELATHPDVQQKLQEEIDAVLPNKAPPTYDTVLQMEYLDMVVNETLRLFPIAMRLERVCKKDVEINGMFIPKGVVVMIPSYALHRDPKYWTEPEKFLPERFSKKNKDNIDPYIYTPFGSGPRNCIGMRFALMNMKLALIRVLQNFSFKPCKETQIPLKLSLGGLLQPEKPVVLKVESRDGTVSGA

[13] = Hepatotoxicity in human HepG2 cells at 1 to 10 uM incubated for 72 hrs by MTS assay; format: toxicity, cell-based; conditions: hepg2, 72 h, dose 1-10 µM
[14] = Metabolic stability in mouse liver microsomes assessed as parent compound remaining at 50 uM measured after 120 mins by UPLC-MS analysis; format: ADME, Microsome; conditions: read-out: Stability

| Structure (SMILES) | Ki [1] | Ki [2] | Ki [3] | Ki [4] | Ki (D(2) dopamine receptor [5]) | other results |
| --- | --- | --- | --- | --- | --- | --- |
| O=S1(=O)N(CCCCCCN2CCN(c3cccc(Cl)c3)CC2)c2cccc3c2N1CCC3 | 70 nM | 162 nM | 282 nM | 1690 nM | 253 nM |  |
| NC(=O)N1CCN(c2cccc(Cl)c2)CC1 | 7010 nM | 22800 nM | 32400 nM | 7490 nM | 116000 nM |  |
| O=c1[nH]c2ccccc2n1CCN1CCN(c2cccc(C(F)(F)F)c2)CC1 [FLIBANSERIN] |  |  |  |  |  | Ki [6]: 11.8 nM |
| Cn1c(=O)c2c(ncn2C)n(C)c1=O [CAFFEINE] |  |  |  |  |  | Papp at 5 h [7]: 12.2 ×10⁻⁶ cm/s |
| Clc1cccc(N2CCNCC2)c1 [CHLOROPHENYLPIPERAZINE] |  |  |  |  |  | Ki [8]: 1750 nM; Ki [9]: 42 nM; Ki (D(2) dopamine receptor [10]): > 10 µM |
| O=c1n(CCCCCCN2CCN(c3cccc(Cl)c3)CC2)c2cccc3c2n1CCC3 | 74 nM | 61 nM | 66 nM | 1140 nM | 18 nM |  |
| NS(=O)(=O)NCCCCCCN1CCN(c2cccc(Cl)c2)CC1 | 21 nM | 167 nM | 329 nM | 1530 nM | 229 nM |  |
| O=c1n(Cc2ccc(CN3CCN(c4cccc(Cl)c4)CC3)cc2)nc2ccccn12 | 52 nM | 3470 nM | 1070 nM | 1160 nM | 148 nM |  |
| O=c1n(CCCCCCN2CCN(c3cccc4c3OCCO4)CC2)nc2ccccn12 | 1 nM | 271 nM | 434 nM | 2840 nM | 60 nM | Ratio Ki (Homo sapiens): 60; Kb [11]: 2 nM |
| O=C(NCCCCCCn1nc2ccccn2c1=O)N1CCN(c2cccc(Cl)c2)CC1 | 35 nM | 462 nM | 530 nM | 2550 nM | 1940 nM | Activity [12]: Toxic; Papp at 5 h [7]: 2.9 ×10⁻⁶ cm/s; inhibition at 10 µM (CYP3A4): 75%; Ratio Ki (Homo sapiens): 55; Activity [13]: Non-Toxic; remaining at 2 h, 50 µM [14]: 0% |
| O=c1n(CCCCCCN2CCN(c3cccc(Cl)c3Cl)CC2)nc2ccccn12 | 7 nM | 243 nM | 47 nM | 299 nM | 9 nM |  |
| S=c1n(CCCCCCN2CCN(c3cccc(Cl)c3)CC2)c2cccc3c2n1CCC3 | 206 nM | 171 nM | 258 nM | 582 nM | 85 nM |  |
| O=c1n(CCCCCCN2CCN(c3cccc4cccnc34)CC2)nc2ccccn12 | 3 nM | 655 nM | 2200 nM | 4140 nM | 143 nM | Kb [11]: 3.6 nM |
| O=c1n(CC2CCC(CN3CCN(c4cccc(Cl)c4)CC3)CC2)nc2ccccn12 (stereo not given) | 31 nM | 257 nM | 493 nM | 4580 nM | 559 nM | Ratio Ki (Homo sapiens): 18 |
| O=c1n(Cc2ccc(CN3CCN(c4ccc(Cl)cc4)CC3)cc2)nc2ccccn12 | 467 nM | 201000 nM | 1450 nM | 2140 nM | 1390 nM |  |
| O=c1n(CCCCCCN2CCN(c3cccc(C(F)(F)F)c3)CC2)nc2ccccn12 | 17 nM | 1070 nM | 291 nM | 404 nM | 62 nM |  |
| O=c1n(CCCCCCN2CCN(c3cccc4ccccc34)CC2)nc2ccccn12 | 6 nM | 186 nM | 223 nM | 285 nM | 32 nM |  |
| NC(=O)NCCCCCCN1CCN(c2cccc(Cl)c2)CC1 | 39 nM | 183 nM | 195 nM | 4930 nM | 235 nM |  |

— ChEMBL document CHEMBL5154833, “New N-aryl-N'-aryl-/(thio)ureido-/sulfamoylamino-derivatives of alkyl/alkylcarbamoyl piperazines: Effect of structural modifications on selectivity over 5-HT1A receptor” (Eur J Med Chem, 2022)
